Columns and labels:
[1] = test system: Synechococcus sp. HPPD "SEQ ID No. 5"; experiment: HPPD activity in presence of HPPD inhibitors (pI50, % inhibition); assay type: biochemical; settings: for percentage of inhibition: 5.0 × 10^−6 M inhibitor, compared to activity in absence of inhibitor; for pI50: 2 mM HPP, 3 minutes incubation
Text: (§1) In this content, pI50-value means the log value of the concentration of inhibitor necessary to inhibit 50% of the enzyme activity in molar concentration.

[2] = test system: T1 tobacco plants carrying FMP38e; experiment: Glasshouse response to bicyclopyrone, injury classes; assay type: in vivo, Nicotiana tabacum; settings: 100 g AI/ha, 7 DAT
Text: (§2) Seeds of wild type tobacco plants and T1 tobacco plants carrying the gene from Synechococcus sp. FMP38e coding for HPPD were sown on MS media (Murashige and Skoog 1964) supplemented with […] kanamycin. After 4 weeks, rooted green plantlets were transferred to soil and grown for 3 weeks in the glasshouse as described above then sprayed with a mixture containing bicyclopyrone (100 g AI/ha), ammonium sulfate and methyl ester raps oil. The plants were classified in two categories based on the phenotype developed in response to the herbicide seven days after the treatment. […] In this case, only plants containing at least one T-DNA were exposed to the herbicidal treatment.

wild type tobacco plants = experiment: as above; assay type: in vivo, Nicotiana tabacum; settings: 100 g AI/ha, 7 DAT; line WT
Text: as §2

[3] = molecular target: Synechococcus sp. HPPD "SEQ ID No. 5"; experiment: HPLC assay of HPPD activity, in vitro kinetic properties; assay type: biochemical
Experimental: Km, Vmax, and kcat values for different HPPD enzyme preparations and Ki, K1=Kon, and K−1=Koff for different HPPD inhibitors were determined using a HPLC assay for measurements of HPPD activity. […] All assays were started by the addition of HPPD enzyme to the assay mixture and stopped at a series of times between 0 and 240 s by addition of 200 μl of the reaction mixture to reaction assay tubes containing 20 μl 10% perchloric acid. Precipitated protein was pelleted by a 5 minute centrifugation at 10,000 g. […] A standard set of concentrations of HGA were used to provide a standard curve in order to calibrate the 292 nm absorbance of the HGA peak versus HGA concentration.
For Km and Vmax value determinations the initial rates of the HPPD reaction at different substrate concentrations were determined from plots of HGA formed versus time and fitted to the Michaelis-Menten equation for unireactant enzymes using the ID Business Solutions Ltd. (idbs.com) XLfit software suite. For the determination of Ki, K1=Kon, and K=−1=Koff values the time-courses of the HPPD reaction at different inhibitor concentrations were fitted to the equations for Mechanism A, competitive inhibition, for tight-binding inhibitors (Cha, S. (1975) Tight-binding inhibitors-I. Kinetic behaviour. Biochemical Pharmacology 24, 2177-2185) using the ID Business Solutions Ltd. XLfit software suite
(§3) In below given table 1, “Km” (Michaelis-Menten constant) means the kinetic parameter that is used to characterise an enzyme, and it is defined as the concentration of substrate that permits half maximal rate of the reaction. Km is further defined as the substrate concentration at which the reaction rate reaches half of its maximum value (Vmax/2) where Vmax has the meaning of being the maximum velocity of the reaction.
(§4) Kon=K1 equals the association rate constant of the […] binding and Koff=K−1 equals the rate constant of the enzyme-inhibitor complex dissociation. Ki defines the inhibition constant.

[4] = molecular target: T1, Arabidopsis thaliana HPPD "SEQ ID No. 10" (Arabidopsis thaliana, UniProt P93836); experiment: as above; assay type: biochemical; settings: substrate HPP varied between 10 and 400 μM
T1 construct: Preparation of Synechococcus sp; Ala + 6xHis (N); made in house; host or cells: E. coli K-12 BL21 (pQE30-AtHPPD)
T1 sequence (P93836 with tags, fused parts or gaps): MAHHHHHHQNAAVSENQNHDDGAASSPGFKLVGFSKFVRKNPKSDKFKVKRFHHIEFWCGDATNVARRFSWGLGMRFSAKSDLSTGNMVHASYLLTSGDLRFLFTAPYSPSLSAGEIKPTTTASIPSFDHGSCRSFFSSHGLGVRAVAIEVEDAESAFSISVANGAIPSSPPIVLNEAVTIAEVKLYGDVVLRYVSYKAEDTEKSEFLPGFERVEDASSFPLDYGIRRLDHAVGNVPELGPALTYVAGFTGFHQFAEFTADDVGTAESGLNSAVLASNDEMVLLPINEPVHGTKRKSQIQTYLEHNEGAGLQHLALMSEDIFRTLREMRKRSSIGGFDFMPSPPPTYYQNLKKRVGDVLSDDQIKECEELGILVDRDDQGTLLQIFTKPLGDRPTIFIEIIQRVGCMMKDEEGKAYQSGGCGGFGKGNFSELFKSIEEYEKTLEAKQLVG
Experimental: Km, Vmax, and kcat values for different HPPD enzyme preparations and Ki, K1=Kon, and K−1=Koff for different HPPD inhibitors were determined using a HPLC assay for measurements of HPPD activity. […] All assays were started by the addition of HPPD enzyme to the assay mixture and stopped at a series of times between 0 and 240 s by addition of 200 μl of the reaction mixture to reaction assay tubes containing 20 μl 10% perchloric acid. Precipitated protein was pelleted by a 5 minute centrifugation at 10,000 g.
For Km and Vmax value determinations the initial rates of the HPPD reaction at different substrate concentrations were determined from plots of HGA formed versus time and fitted to the Michaelis-Menten equation for unireactant enzymes using the ID Business Solutions Ltd. (idbs.com) XLfit software suite.
as §3, §4

[5] = test system: transgenic soybean shoots (FMP38); experiment: Soybean shoot greening under isoxaflutole selection; assay type: in vivo; settings: isoxaflutole as selection marker
Text: (§5) Soybean transformation is achieved using methods well known in the art, such as the one described using the Agrobacterium tumefaciens mediated transformation soybean half-seed explants described by Paz et al. (2006, Plant cell Rep. 25:206). Transformants were identified using Isoxaflutole as selection marker. The appearance of green shoots was observed, and documented as an indicator of tolerance to the herbicide isoxaflutole. […] Tolerant green shoots were transferred to rooting media or grafted. Rooted plantlets are transferred to the glasshouse after an acclimation period.

wild-type soybean shoots = experiment: as above; assay type: in vivo; settings: same amount of isoxaflutole
Text: as §5

[6] = molecular target: T1, Arabidopsis thaliana HPPD "SEQ ID No. 10"; experiment: HPPD activity in presence of HPPD inhibitors (pI50, % inhibition); assay type: biochemical
Text: as §1

[7] = substrate HPP varied between 10 and 400 μM

`Cc1ccc(C(=O)COc2c(C(=O)c3ccc(Cl)c(C)c3Cl)c(C)nn2C)cc1` [Benzofenap] was tested, and the percentage of inhibition [1] was 31%.
In the case of `COCCOCc1nc(C(F)(F)F)ccc1C(=O)C1=C(O)C2CCC(C2)C1=O` (stereo not drawn) [Bicyclopyrone, 4-hydroxy-3-[[2-[(2-methoxyethoxy)methyl]-6-(trifluoromethyl)-3-pyridinyl]carbonyl]bicyclo[3.2.1]oct-3-en-2-one], the pI50 [1] is reported as 5.0, the percentage of inhibition [1] is reported as 19% and the “% of tolerant plant” value ([2]; line 34) is reported as 17%. The “Class I (injury: 0-30%)” value ([2]; line 34) was 59, the “Class II (injury: 31-100%)” value ([2]; line 34) was 6 and the “% of tolerant plant” value ([2]; line 39) was 46%. The “Class I (injury: 0-30%)” value ([2]; line 39) was 100, the “Class II (injury: 31-100%)” value ([2]; line 39) was 48 and the “% of tolerant plant” value ([2]; line 197) was 15%. For the same compound, the “Class I (injury: 0-30%)” value ([2]; line 197) was 89, the “Class II (injury: 31-100%)” value ([2]; line 197) was 15 and the “% of tolerant plant” value (wild type tobacco plants) was 0%. The “Class I (injury: 0-30%)” value (wild type tobacco plants) was 0 and the “Class II (injury: 31-100%)” value (wild type tobacco plants) was 12.
Compound `CS(=O)(=O)c1cc(C(F)(F)F)ccc1C(=O)C(C#N)C(=O)C1CC1` (stereo not drawn) [Diketonitrile, 2-cyano-3-cyclopropyl-1-(2-methylsulphonyl-4-trifluoromethylphenyl)-propane-1,3-dione] has a Ki ([3]; 2 mM HPP) of 12 µM, a pI50 [1] of 5.5 and a percentage of inhibition [1] of 62%.
Work on `O=C(O)C(=O)Cc1ccc(O)cc1` [HPP, para-hydroxyphenylpyruvate] yielded a Km [4] of 6.3 µM, a Vmax [4] of 1.2 µM and a Km [3, 7] of 5.1 µM. The Vmax [3, 7] was 1.2 µM.
With `CS(=O)(=O)c1cc(C(F)(F)F)ccc1C(=O)c1cnoc1C1CC1` [Isoxaflutole, (5-cyclopropyl-4-isoxazolyl)[2-(methylsulfonyl)-4-(trifluoromethyl)phenyl]methanone] the “transgenic tested shoots showing normal greening” value [5] was 0.6% and the bleaching of shoots (wild-type soybean shoots) was “entirely bleached”.
Work on `CS(=O)(=O)c1ccc(C(=O)C2C(=O)CCCC2=O)c([N+](=O)[O-])c1` [Mesotrione, 2-[4-(methylsulfonyl)-2-nitrobenzoyl]-1,3-cyclohexanedione] yielded a pI50 [1] of 5.4 and a percentage of inhibition [1] of 47%.
Work on `Cc1nn(C)c(O)c1C(=O)c1ccc(C(F)(F)F)cc1S(C)(=O)=O` [Pyrasulfotole] yielded a pI50 [1] of 4.7, a percentage of inhibition [1] of 16% and a pI50 ([6]; 2 mM HPP, 3 minutes incubation) of 5.4. For the same compound, the percentage of inhibition ([6]; 5.0 × 10^−6 M inhibitor, compared to activity in absence of inhibitor) was 69%.
With `CS(=O)(=O)c1ccc(C(=O)C2C(=O)CCCC2=O)c(Cl)c1` [Sulcotrione, 2-[2-chloro-4-(methylsulfonyl)benzoyl]-1,3-cyclohexanedione] the percentage of inhibition [1] was 19%.
Compound `CS(=O)(=O)c1ccc(C(=O)C2C(=O)CCCC2=O)c(Cl)c1COCC1CCCO1` (stereo not drawn) [Tefuryltrione, 2-[2-chloro-4-(methylsulfonyl)-3-[[(tetrahydro-2-furanyl)methoxy]methyl]benzoyl]-1,3-cyclohexanedione] has a pI50 [1] of 5.6 and a percentage of inhibition [1] of 72%.

Reference: US20150159167A1, “Plants Tolerant to HPPD Inhibitor Herbicides” (Bayer CropScience AG, priority 2009, published 2015)
